Measurements taken from US5091539A, “Azolyl cycloalkanol derivatives and agricultural fungicides” (Shionogi & Co., Ltd., priority 1984, dated 1992).
In brackets after ≈: the same amount, converted by molar mass.

Tests used:
[1] = system: Sphaerotheca fuliginea; assay: Control test to powdery mildew of cucumber (foliar and soil treatment); format: in vivo; details: for Protective Index, Foliar Treatment / Protective Index, Soil Treatment: first Table 4, 125 ppm, 14 days; for Foliar Treatment, Curative Effect / Foliar Treatment, Protective Effect / Soil Treatment, Protective Effect: index 0-10
Description: (1) Seeds of cucumber (Cultivar: Matsukaze) were sown in a pot of 9 cm in diameter and the pots were kept in a green house until the plant was grown for 2-3 leaf stage. The first leaf was sprayed with, (i) 3 ml each of solutions containing the test compound at the prescribed concetrations and dried by the air (foliar treatment). Inoculation of spore suspension of Sphaerotheca fuliginea by spraying was practised 2 days before the treatment (curative effect) or 1 day after the treatment (protective effect). Alternatively, (ii) 5 ml of the solution was applied at the root of the seedlings (soil treatment). The pots were kept in a greenhouse for 2 days and inoculation was practised in the same manner noted above. (iii) After sprayed with 3 ml of a solution of the test compound at a concentration of 125 ppm and dried by the air, the treated pots were set in a greenhouse. Untreated pots were placed next to the treated pots. Those treated and untreated plants were inoculated with spore suspension. Protective effect of the test compounds by vapor was thus checked. The effect was examined 14 days after the inoculation of the spores.
0: Disease sign is observed on the whole leaf.
3: Disease sign is observed on the leaf in about 50%.
5: Disease sign is observed on the leaf in about 30%.
7: Disease sign is observed on the leaf in about 20%.
9: a little disease sign is observed.
(§1) (1) Test methods and evaluation are the same as those in Tests 2, 4 and 6.

[2] = system: Fusarium oxysporum; assay: Control test to damping-off of cucumber (Fusarium oxysporum); format: in vivo; details: soil drench, 14 days
Description: (§2) (1) The fungus causing damping-off of cucumber seedlings, Rhizoctonia solani or Fusarium oxysporum was cultured on a wheat bran medium at 28° C. for 5 days, which was mixed with sterilized soil and cultured for 2 days to prepare the inoculum. Sterilized soil (150 g) was put into a pot of 9 cm in diameter. The surface of the spot was covered with the above inoculum. […] Twenty cucumber seeds (Cultivar: Matsukaze) were sown 2 days after. The pots were kept at 30°±2° C. for 14 days. The infection was observed 14 days after and disease degree and percent disease degree were obtained by setting an evaluation index for each disease sympton.
(§3) (2) Evaluation [formula] wherein a: number of seeds without germination b: number of seedlings showing damping-off c: number of wilted seedlings d: number of seedlings being a little brownish in cotyledons or at the bottom of the stem e: number of uninfected seedlings [formula] wherein a: number of seeds without germination or seedlings with damping-off b: number of wilted seedlings c: number of seedlings being a little brownish in cotyledons or at the bottom of the stem d: number of uninfected seedlings [formula]

[3] = system: Corticium rolfsii; assay: Anti-fungal activity in vitro; format: cell-based; details: Agroathelia rolfsii, 48 h; GY medium, 28° C., 2 days
Description: (§4) (1) Each test compound was diluted by two-fold dilution with GY medium (2% glucose and 0.4% yeast extract) containing 0.01% Tween 80 (trademark). Every diluted solution was inoculated with spore suspension (10^5-5 spores/ml) of Alternaria kikuchiana or a hyphae disk with agar (4 mm in diameter) of other fungi and incubated at 28° C. for 2 days.

[4] = system: Vasla ceratosperma; assay: Anti-fungal activity in vitro; format: cell-based; details: 48 h; GY medium, 28° C., 2 days
Description: as §4

[5] = system: Pyrenophora graminea; assay: Anti-fungal activity in vitro; format: cell-based; details: 48 h, GY medium, 28° C., 2 days
Description: as §4

[6] = system: Monilinia fructicola; assay: Anti-fungal activity in vitro; format: cell-based; details: 48 h, GY medium, 28° C., 2 days
Description: as §4

[7] = system: Cochiobolus sativus; assay: Anti-fungal activity in vitro; format: cell-based; details: 48 h; GY medium, 28° C., 2 days
Description: as §4

[8] = system: Diaporthe citri; assay: Anti-fungal activity in vitro; format: cell-based; details: 48 h, GY medium, 28° C., 2 days
Description: as §4

[9] = system: Alternaria kikuchiana; assay: Anti-fungal activity in vitro; format: cell-based; details: 48 h, GY medium, 28° C., 2 days, spore suspension
Description: as §4

[10] = system: Ustilago nuda; assay: Anti-fungal activity in vitro; format: cell-based; details: 48 h, GY medium, 28° C., 2 days
Description: as §4

[11] = system: Rhizoctonia solani; assay: Control test to damping-off of cucumber (Rhizoctonia solani); format: in vivo; details: soil drench, 14 days
Description: as §2, §3

[12] = system: Sclerotinia sclerotiorum; assay: Control test to Sclerotinia rot of cucumber; format: in vivo
Description: (1) This test was practised in the same manner as in the above test, control test of Botrytis rot (gray mold) of cucumber, except for using the mycelium of Sclerotinia sclerotiorum as inoculm. The same as in test 2.

[13] = system: Botrytis cinerea; assay: Control test of Botrytis rot (gray mold) of cucumber; format: in vivo
Description: (1) Seedlings of cucumber (Cultivar: Matsukaze) were planted in a pot of 9 cm in diameter. The first leaf was sprayed with 3 ml each of solutions containing the test compound at the concentration of 125 or 31.3 ppm and the plant was dried by the air. After inoculation of the spores of Botrytis cinerea, the plants were kept at 20°±2° C. and 90-100% humidity ((i) protective spraying). Alternatively, the spores were inoculated at first and when the leaves suffered a little (about 2 days after), the solutions of the test compounds were sprayed ((ii) curative spraying). Evaluation was practised 3 days after the inoculation. Percent disease control was calculated by the ratio of diameter of diseased area in treated and untreated plants.
as §1

[14] = system: Cladosporium herbarum; assay: Anti-fungal activity in vitro; format: cell-based; details: 48 h, GY medium, 28° C., 2 days
Description: as §4

[15] = system: Puccinia coronata; assay: Control test of crown rust of oat; format: in vivo
Description: (1) Young oats (Cultivar: Pc38) grown in pots in a greenhouse were (i) sprayed with 10 ml each of solution of the test compounds at a prescribed concentration and after air-drying, they were inoculated with 15 mg of uredospores of Puccinia coronata per 20 pots (protective spraying) or (ii) sprayed with the test solution 3 days after inoculation of uredospores. After each plant was kept at 20°-25° C. in a greenhouse for 2 weeks, number of uredia was counted on the first leaf.

| SMILES | MIC [3] [µg/mL] | MIC [5] [µg/mL] | MIC [6] [µg/mL] | MIC [7] [µg/mL] | MIC [8] [µg/mL] | MIC [9] [µg/mL] | MIC [10] [µg/mL] | MIC [14] [µg/mL] | Protective Index, Foliar Treatment [1] | Protective Index, Soil Treatment [1] | Disease Degree ([2]; 500 ppm) | Percent Disease Control ([2]; 500 ppm) [%] | MIC [4] [µg/mL] | Disease Degree ([11]; 500 ppm) | Percent Disease Control ([11]; 500 ppm) [%] | Percent Disease Control, Curative Spraying ([12]; 125 ppm) [%] | Percent Disease Control, Protective Spraying ([12]; 125 ppm) [%] | Percent Disease Control, Curative Spraying ([13]; Table 2, 125 ppm) [%] | Percent Disease Control, Protective Spraying ([13]; Table 2, 125 ppm) [%] | Percent Disease Control, Curative Spraying ([12]; 31.3 ppm) [%] | further results |
| --- | --- | --- | --- | --- | --- | --- | --- | --- | --- | --- | --- | --- | --- | --- | --- | --- | --- | --- | --- | --- | --- |
| O[C@@]1(c2ccc(Cl)s2)CCCCC[C@H]1n1cncn1 (relative stereo) [Compound 13, cis-1-(5-chloro-2-thienyl)-2-(1,2,4-triazol-1-yl)cycloheptanol] | – | – | – | – | – | – | – | – | 10 | 10 | 100 | 0 | – | 5 | 95 | 95 | 100 | 94 | 100 | – | – |
| O=C1C2CC=CCC2C(=O)N1SC(Cl)(Cl)Cl (centres unmarked) [Captan, reference compound] | – | – | – | – | – | – | – | – | – | – | – | – | – | – | – | – | – | – | – | – | Disease Degree ([2]; 800 ppm): 0; Percent Disease Control ([2]; 800 ppm): 100% |
| OC(c1ccc(Cl)cc1)(c1cncnc1)c1ccccc1Cl (centres unmarked) [Fenarimol, reference compound] | 25 (≈ 75.5 µM) | 12.5 (≈ 37.7 µM) | 3.13 (≈ 9.45 µM) | 1.56 (≈ 4.71 µM) | > 50 | 6.25 (≈ 18.9 µM) | 25 (≈ 75.5 µM) | > 50 | – | – | – | – | 12.5 (≈ 37.7 µM) | – | – | – | – | – | – | – | Percent Disease Control, Curative Spraying ([15]; 12.5 ppm): 75%; Percent Disease Control, Protective Spraying ([15]; 12.5 ppm): 62%; Percent Disease Control, Curative Spraying ([15]; 25 ppm): 92%; Percent Disease Control, Protective Spraying ([15]; 25 ppm): 89%; Percent Disease Control, Curative Spraying ([15]; 50 ppm): 98%; Percent Disease Control, Protective Spraying ([15]; 50 ppm): 100% |

Further lines, with some results ahead:

| MIC [3] [µg/mL] | MIC [5] [µg/mL] | MIC [6] [µg/mL] | MIC [7] [µg/mL] | MIC [8] [µg/mL] | MIC [9] [µg/mL] | MIC [10] [µg/mL] | MIC [14] [µg/mL] | SMILES | Protective Index, Foliar Treatment [1] | Protective Index, Soil Treatment [1] | Disease Degree ([2]; 500 ppm) | Percent Disease Control ([2]; 500 ppm) [%] | MIC [4] [µg/mL] | Disease Degree ([11]; 500 ppm) | Percent Disease Control ([11]; 500 ppm) [%] | Percent Disease Control, Curative Spraying ([12]; 125 ppm) [%] | Percent Disease Control, Protective Spraying ([12]; 125 ppm) [%] | Percent Disease Control, Curative Spraying ([13]; Table 2, 125 ppm) [%] | Percent Disease Control, Protective Spraying ([13]; Table 2, 125 ppm) [%] | Percent Disease Control, Curative Spraying ([12]; 31.3 ppm) [%] | further results |
| --- | --- | --- | --- | --- | --- | --- | --- | --- | --- | --- | --- | --- | --- | --- | --- | --- | --- | --- | --- | --- | --- |
| 1.56 (≈ 4.42 µM) | 6.25 (≈ 17.7 µM) | 1.56 (≈ 4.42 µM) | 3.13 (≈ 8.88 µM) | 3.13 (≈ 8.88 µM) | 25 (≈ 70.9 µM) | 6.25 (≈ 17.7 µM) | – | O[C@@]1(c2sc(Cl)c(Cl)c2Cl)CCCC[C@H]1n1cncn1 (relative stereo) [Compound 12, cis-1-(3,4,5-trichloro-2-thienyl)-2-(1,2,4-triazol-1-yl)cyclohexanol] | 10 | 10 | 17 | 83 | 3.13 (≈ 8.88 µM) | 0 | 100 | – | – | – | – | – | – |
| 50 (≈ 171 µM) | 12.5 (≈ 42.8 µM) | 0.2 (≈ 0.685 µM) | 6.25 (≈ 21.4 µM) | 25 (≈ 85.7 µM) | 12.5 (≈ 42.8 µM) | 1.56 (≈ 5.35 µM) | 6.25 (≈ 21.4 µM) | O[C@@]1(c2ccc(Cl)cc2)CCCCC[C@H]1n1cncn1 (relative stereo) [Compound 24, cis-1-(4-chlorophenyl)-2-(1,2,4-triazol-1-yl)cycloheptanol] | – | – | – | – | – | – | – | 97 | 100 | 94 | 100 | 96 | Percent Disease Control, Protective Spraying ([12]; 31.3 ppm): 100%; Foliar Treatment, Curative Effect ([1]; second Table 4, 0.5 ppm): 10; Foliar Treatment, Protective Effect ([1]; second Table 4, 0.5 ppm): 5 (Disease sign is observed on the leaf in about 30%.); Soil Treatment, Protective Effect ([1]; second Table 4, 0.5 ppm): 0; Foliar Treatment, Curative Effect ([1]; second Table 4, 2.0 ppm): 10; Foliar Treatment, Protective Effect ([1]; second Table 4, 2.0 ppm): 10; Soil Treatment, Protective Effect ([1]; second Table 4, 2.0 ppm): 0; Foliar Treatment, Curative Effect ([1]; second Table 4, 7.8 ppm): 10; Foliar Treatment, Protective Effect ([1]; second Table 4, 7.8 ppm): 10; Soil Treatment, Protective Effect ([1]; second Table 4, 7.8 ppm): 10; Foliar Treatment, Curative Effect ([1]; second Table 4, 31.3 ppm): 10; Foliar Treatment, Protective Effect ([1]; second Table 4, 31.3 ppm): 10; Soil Treatment, Protective Effect ([1]; second Table 4, 31.3 ppm): 10; Percent Disease Control, Curative Spraying ([13]; Table 2, 31.3 ppm): 86%; Percent Disease Control, Protective Spraying ([13]; Table 2, 31.3 ppm): 100% |
| 12.5 (≈ 45 µM) | 1.56 (≈ 5.62 µM) | 0.39 (≈ 1.4 µM) | 3.13 (≈ 11.3 µM) | 3.13 (≈ 11.3 µM) | 3.13 (≈ 11.3 µM) | 3.13 (≈ 11.3 µM) | 1.56 (≈ 5.62 µM) | O[C@@]1(c2ccccc2Cl)CCCC[C@H]1n1cncn1 (relative stereo) [Compound 32] | – | – | – | – | – | – | – | 94 | 100 | – | – | 86 | Percent Disease Control, Protective Spraying ([12]; 31.3 ppm): 72%; Foliar Treatment, Curative Effect ([1]; second Table 4, 0.5 ppm): 7 (Disease sign is observed on the leaf in about 20%.); Foliar Treatment, Protective Effect ([1]; second Table 4, 0.5 ppm): 0; Soil Treatment, Protective Effect ([1]; second Table 4, 0.5 ppm): 0; Foliar Treatment, Curative Effect ([1]; second Table 4, 2.0 ppm): 10; Foliar Treatment, Protective Effect ([1]; second Table 4, 2.0 ppm): 9; Soil Treatment, Protective Effect ([1]; second Table 4, 2.0 ppm): 0; Foliar Treatment, Curative Effect ([1]; second Table 4, 7.8 ppm): 10; Foliar Treatment, Protective Effect ([1]; second Table 4, 7.8 ppm): 10; Soil Treatment, Protective Effect ([1]; second Table 4, 7.8 ppm): 10; Foliar Treatment, Curative Effect ([1]; second Table 4, 31.3 ppm): 10; Foliar Treatment, Protective Effect ([1]; second Table 4, 31.3 ppm): 10; Soil Treatment, Protective Effect ([1]; second Table 4, 31.3 ppm): 10; Disease Degree ([11]; 31.3 ppm): 10; Percent Disease Control ([11]; 31.3 ppm): 90% |
